#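 Where inhibition never reached the appropriate level, the endpoint shown equals the highest concentration tested. Otherwise, values were interpolated linearly from a five-concentration, 48-hour dose response in 96-well plates. TGI: concentration producing complete growth inhibition.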
# What was measured:
# Test in all cases: inhibition of tumour cell growth, NCI panel, 48 h
# [1] = test system: HL-60(TB) leukemia
# [2] = test system: HCT-15 colon
# [3] = test system: EKVX NSCLC
# [4] = test system: RXF 393 renal
# [5] = test system: OVCAR-8 ovarian
# [6] = test system: NCI-H23 lung
# [7] = test system: MOLT-4 leukemia
# [8] = test system: DU-145 prostate
# [9] = test system: HCC-2998 colon
# [10] = test system: COLO 205 colon
SMILES,TGI [1] [µM],TGI [2] [µM],TGI [3] [µM],TGI [4] [µM],TGI [5] [µM],TGI [6] [µM],TGI [7] [µM],TGI [8] [µM],TGI [9] [µM],TGI [10] [µM]
CC1OC(OC2CC(O)(C(=O)CO)Cc3c(O)c4c(c(O)c32)C(=O)c2ccccc2C4=O)CC(N)C1O (stereo unspecified),< 0.0173,1.99,1.82,0.152,12.4,0.203,< 0.0819,0.0836,0.084,0.139
Cc1nc(C)c(N2CCN(C#N)CC2)c(=O)[nH]1,> 100,> 100,> 100,> 100,> 100,> 100,> 100,> 100,> 100,> 100
O=C1OC(c2ccccc2)N/C1=C\c1ccc2c(c1)OCO2 (stereo unspecified),0.684,> 100,> 100,> 100,> 100,> 100,> 100,> 100,> 100,> 100
CCNc1ncnc2n[nH]nc12,> 100,> 100,> 100,> 100,> 100,> 100,> 100,> 100,> 100,> 100
COc1cc(/C=C(\C#N)c2ccccn2)cc(Br)c1O,> 100,> 100,> 100,> 100,> 100,> 100,> 100,> 100,> 100,> 100
CC(C)=CCC[C@H](C)[C@H]1CC[C@@H](C)c2cc(O)c(C)cc21,41.7,35.1,33.4,42.2,35.6,33,51,37.9,33.7,34.3
O=C(/C(=C/c1cccs1)c1ccccc1)c1ccccc1,> 100,> 100,> 100,18.8,> 100,> 100,> 100,> 100,> 100,> 100
CC1(C)CC[C@]2(C(=O)O)CC[C@]3(C)C(=CC[C@@H]4[C@@]5(C)CC[C@H](OC6OC(CO)C(O)C(O)C6OC6OC(CO)C(O)C(O)C6O)C(C)(C)[C@@H]5CC[C@]43C)[C@@H]2C1 (stereo partly specified),42.8,35.3,35.4,37.3,35.2,53.7,48.3,31.4,36.2,28.7
O=C(N/C(=C\c1ccccc1)C1Nc2ccccc2C(=O)O1)c1ccccc1 (stereo unspecified),36.1,> 100,> 100,63,51.1,> 100,45.1,> 100,38.6,80.9
Cc1cccc(NC(=S)N/N=C(/c2ccccc2)c2ccccn2)c1,1.53,16.5,4.08,13.2,15.4,13.9,> 6.59,9.34,19.7,12.8
CCN(CC)c1nc(N(C)C)c2cc(OC)ccc2n1,67,> 100,> 100,> 100,> 100,> 100,65.1,> 100,46.4,28.2
Cc1c2cccc-2c(OCCO)cc2c1[nH]c1ccccc12,> 19.9,22.9,5.18,5.37,15.7,12.3,20.1,> 50.1,12.1,9.4
Cc1nc2c(ncn2CCO)c(=O)[nH]1,> 100,> 100,> 100,> 100,> 100,> 100,–,> 100,> 100,> 100
N=c1oc2c(Cl)cc(Cl)cc2cc1C(=O)Nc1ccccn1,> 100,> 100,> 100,47.7,–,> 100,> 100,> 100,> 100,> 100
C=C(C(=O)O)[C@@H]1C[C@@H]2O[C@H]1CC(C)=CCC/C(C)=C/CC[C@@]2(C)O,> 100,> 100,> 100,> 100,> 100,–,> 100,> 100,> 100,> 100
C[C@]12CCC(=O)C=C1CC[C@@H]1C2CC[C@]2(C)Nc3c(ncn3-c3ccc(F)cc3)CC12 (stereo partly specified),> 100,–,> 100,30.6,> 100,> 100,90.8,> 100,88.8,38.4
